US8633019B2, “Methods for treating spinal muscular atrophy” (PTC Therapeutics, Inc., priority 2008, dated 2014)

The molecules below were run on inclusion of exon 7 of SMN2 into mRNA transcribed from the SMN2-A minigene (assay: Fold Activation: luciferase reporter, SMN2-A minigene construct versus SMN2-G minigene construct, in stably transfected HEK293H cells). Conditions: ratio of First Activation using the SMN2-A construct divided by Second Activation using the SMN2-G construct.
Format: cell-based, human
Text: In a specific embodiment, the first cell and the second cell are the same cell type. In some embodiments, the first cell and the second cell are the same cell type and are obtained from the same source or clone. In some embodiments, the first reporter gene and the second reporter gene are the same reporter gene. In other embodiments, the first reporter gene and second reporter gene are different reporter genes. A compound that increases the inclusion of exon 7 of SMN2 into mRNA transcribed from the SMN2 gene will result in a Fold Activation derived from a higher ratio of the First Activation:
[formula] [formula] [formula] In some embodiments, both the amount and activity of the first and second fusion proteins are detected. Accordingly, as used herein, the Fold Activation for a compound that modulates the inclusion of exon 7 of SMN2 into mRNA transcribed from the SMN2 gene is a ratio of the First Activation divided by the Second Activation.
The HEK293H cell line stably transfected with the SMN2-A minigene construct was utilized in the HTS. HTS was performed by plating 10,000 cells in each well of a 384-well plate. Each 384-well plate contained 64 control wells used as an internal standard: 16 wells were used as a total control (no test compound, only compound solvent), 16 wells were used as reference standards representing background readings (high inhibitor concentration) and 32 wells were prepared to provide an 8-point dose response curve of puromycin as a non-specific standard control inhibitor. The remaining 320 wells contained individual test compounds. The cells were grown overnight in the presence of test compounds or controls at 37° C. in 5% CO2. After 24 hours, the amount of luminescence was determined using a ViewLux Imaging system (Perkin Elmer).
Using the SMN2-A minigene construct, a HTS was performed testing a compound library. The amount of the fusion protein expressed from the minigene construct was determined by measuring luciferase activity as described herein. […] Enhancers of fusion protein expression were defined as those compounds that increased luciferase activity by at least three standard deviations above the mean. Based on this analysis, test compounds of Formula (I) were identified as hits and were subsequently confirmed by testing the compounds under the same conditions as in the original HTS. To ensure that the increase in luciferase activity detected in the HTS was due to increased inclusion of exon 7 of SMN2 into mRNA transcripts from the SMN2-A minigene construct, each compound was tested in two different cell lines: the cell line, which was used in the original HTS (HEK293H containing the SMN2-A minigene construct), and a HEK293H cell line that contained the SMN2-G minigene construct.
Each compound was tested at four concentrations: 15 μM, 3 μM, 0.6 μM, 0.12 μM.
The Fold Activation results are provided as a ratio of a First Activation using the SMN-2A construct divided by a Second Activation using the SMN-2G construct, wherein 1 star (*) represents active compounds with a fold increase ratio between 1.1-1.3; 2 stars (**) represent active compounds with a fold increase ratio between 1.3-2.0; 3 stars (***) represent active compounds with a fold increase ratio greater than 2.0.

Row | SMILES | Activity (Fold Activation)
1 | Cc1ccc2nc(-c3cccc(C(=O)O)c3)oc2c1 [Cpd 2, 3-(6-methyl-benzooxazol-2-yl)-benzoic acid] | * (1 star (*) represents active compounds with a fold increase ratio between 1.1-1.3)
2 | CC(C)(C)c1ccc2oc(-c3cccc(C(=O)O)c3)nc2c1 [Cpd 6, 3-(5-tert-butyl-benzooxazol-2-yl)-benzoic acid] | ** (2 stars (**) represent active compounds with a fold increase ratio between 1.3-2.0)
3 | O=C(O)c1cccc(-c2nc3ccc(Cn4ccnc4)cc3o2)c1 [Cpd 8, 3-(6-imidazol-1-ylmethyl-benzooxazol-2-yl)-benzoic acid] | ** (2 stars (**) represent active compounds with a fold increase ratio between 1.3-2.0)
4 | Cc1ccc2nc(-c3ccc(C(=O)O)cc3)oc2c1 [Cpd 11, 4-(6-methyl-benzooxazol-2-yl)-benzoic acid] | ** (2 stars (**) represent active compounds with a fold increase ratio between 1.3-2.0)
5 | O=C(O)c1ccc2nc(-c3ccc(-c4ccccc4)cc3)oc2c1 [Cpd 18, 2-biphenyl-4-yl-benzooxazole-6-carboxylic acid] | * (1 star (*) represents active compounds with a fold increase ratio between 1.1-1.3)
6 | O=C(O)c1ccc2oc(-c3ccc(-c4ccccc4)cc3)nc2c1 [Cpd 19, 2-biphenyl-4-yl-benzooxazole-5-carboxylic acid] | ** (2 stars (**) represent active compounds with a fold increase ratio between 1.3-2.0)
7 | Cc1ccc2oc(-c3cccc(C(=O)O)c3)nc2c1 [Cpd 21, 3-(5-methyl-benzooxazol-2-yl)-benzoic acid] | *** (3 stars (***) represent active compounds with a fold increase ratio greater than 2.0)
8 | CCC(C)(C)c1ccc2oc(-c3cccc(C(=O)O)c3)nc2c1 [Cpd 22, 3-[5-(1,1-dimethyl-propyl)-benzooxazol-2-yl]-benzoic acid] | ** (2 stars (**) represent active compounds with a fold increase ratio between 1.3-2.0)
9 | O=C(O)c1cccc(-c2nc3ccc(-c4ccccc4)cc3o2)c1 [Cpd 23, 3-(6-Phenyl-benzooxazol-2-yl)-benzoic acid] | * (1 star (*) represents active compounds with a fold increase ratio between 1.1-1.3)
10 | CC(C)c1ccc(-c2nc3cc(C(=O)O)ccc3o2)cc1 [Cpd 24, 2-(4-isopropyl-phenyl)-benzooxazole-5-carboxylic acid] | *** (3 stars (***) represent active compounds with a fold increase ratio greater than 2.0)
11 | O=C(O)c1ccc2oc(-c3ccc4c(c3)OCO4)nc2c1 [Cpd 26, 2-benzo[1,3]dioxol-5-yl-benzooxazole-5-carboxylic acid] | ** (2 stars (**) represent active compounds with a fold increase ratio between 1.3-2.0)
12 | O=C(O)c1ccc2oc(-c3ccc(N4CCCC4=O)cc3)nc2c1 [Cpd 28, 2-[4-(2-oxo-pyrrolidin-1-yl)-phenyl]-benzooxazole-5-carboxylic acid] | ** (2 stars (**) represent active compounds with a fold increase ratio between 1.3-2.0)
13 | O=C(O)c1cccc(-c2nc3cc(-c4ccc(OC(F)(F)F)cc4)ccc3o2)c1 [Cpd 29, 3-[5-(4-trifluoromethoxy-phenyl)-benzooxazol-2-yl]-benzoic acid] | ** (2 stars (**) represent active compounds with a fold increase ratio between 1.3-2.0)
14 | O=C(O)c1cccc(-c2nc3cc(-c4ccc(F)c(F)c4)ccc3o2)c1 [Cpd 30, 3-[5-(3,4-difluoro-phenyl)-benzooxazol-2-yl]-benzoic acid] | ** (2 stars (**) represent active compounds with a fold increase ratio between 1.3-2.0)
15 | O=C(O)c1cccc(-c2nc3cc(-c4cc5ccccc5o4)ccc3o2)c1 [Cpd 31, 3-(5-benzofuran-2-yl-benzooxazol-2-yl)-benzoic acid] | ** (2 stars (**) represent active compounds with a fold increase ratio between 1.3-2.0)
16 | COc1ccc2oc(-c3cccc(C(=O)O)c3)nc2c1 [Cpd 32, 3-(5-methoxy-benzooxazol-2-yl)-benzoic acid] | *** (3 stars (***) represent active compounds with a fold increase ratio greater than 2.0)

Row | SMILES | Activity (Fold Activation)
17 | O=C(O)c1ccc2oc(-c3ccc(Br)cc3)nc2c1 [Cpd 35, 2-(4-bromo-phenyl)-benzooxazole-5-carboxylic acid] | ** (2 stars (**) represent active compounds with a fold increase ratio between 1.3-2.0)
18 | CC(C)c1ccc(-c2ccc3oc(-c4cccc(C(=O)O)c4)nc3c2)cc1 [Cpd 36, 3-[5-(4-isopropyl-phenyl)-benzooxazol-2-yl]-benzoic acid] | ** (2 stars (**) represent active compounds with a fold increase ratio between 1.3-2.0)
19 | Cc1cc(C)cc(-c2ccc3oc(-c4cccc(C(=O)O)c4)nc3c2)c1 [Cpd 37, 3-[5-(3,5-dimethyl-phenyl)-benzooxazol-2-yl]-benzoic acid] | * (1 star (*) represents active compounds with a fold increase ratio between 1.1-1.3)
20 | Cc1ccc(-c2nc3cc(C(=O)O)ccc3o2)cc1 [Cpd 38, 2-p-tolyl-benzooxazole-5-carboxylic acid] | *** (3 stars (***) represent active compounds with a fold increase ratio greater than 2.0)
21 | COc1ccc(-c2nc3cc(C(=O)O)ccc3o2)cc1 [Cpd 39, 2-(4-methoxy-phenyl)-benzooxazole-5-carboxylic acid] | ** (2 stars (**) represent active compounds with a fold increase ratio between 1.3-2.0)
22 | O=C(O)c1cccc(-c2nc3ccc(N4CCCCC4)cc3o2)c1 [Cpd 41, 3-(6-piperidin-1-yl-benzooxazol-2-yl)-benzoic acid] | *** (3 stars (***) represent active compounds with a fold increase ratio greater than 2.0)
23 | O=C(O)c1cccc(-c2nc3ccc(N4CCOCC4)cc3o2)c1 [Cpd 42, 3-(6-morpholin-4-yl-benzooxazol-2-yl)-benzoic acid] | ** (2 stars (**) represent active compounds with a fold increase ratio between 1.3-2.0)
24 | O=C(O)c1cccc(-c2nc3cc(N4CCCC4)ccc3o2)c1 [Cpd 43, 3-(5-pyrrolidin-1-yl-benzooxazol-2-yl)-benzoic acid] | ** (2 stars (**) represent active compounds with a fold increase ratio between 1.3-2.0)
25 | O=C(O)c1cccc(-c2nc3ccc(-n4cccn4)cc3o2)c1 [Cpd 44, 3-(6-pyrazol-1-yl-benzooxazol-2-yl)-benzoic acid] | ** (2 stars (**) represent active compounds with a fold increase ratio between 1.3-2.0)
26 | CN1CCN(c2ccc3nc(-c4cccc(C(=O)O)c4)oc3c2)CC1 [Cpd 48, 3-[6-(4-methyl-piperazin-1-yl)-benzooxazol-2-yl]-benzoic acid] | * (1 star (*) represents active compounds with a fold increase ratio between 1.1-1.3)
27 | O=C(O)c1ccc2oc(-c3ccc(N4CCOCC4)cc3)nc2c1 [Cpd 51, 2-(4-morpholin-4-yl-phenyl)-benzooxazole-5-carboxylic acid] | ** (2 stars (**) represent active compounds with a fold increase ratio between 1.3-2.0)
28 | O=C(O)c1cccc(-c2nc3ccc(N4CCC4)cc3o2)c1 [Cpd 52, 3-(6-azetidin-1-yl-benzooxazol-2-yl)-benzoic acid] | ** (2 stars (**) represent active compounds with a fold increase ratio between 1.3-2.0)
29 | O=C(O)c1ccc2oc(-c3ccc(NCCCCl)cc3)nc2c1 [Cpd 54, 2-[4-(3-chloro-propylamino)-phenyl]-benzooxazole-5-carboxylic acid] | ** (2 stars (**) represent active compounds with a fold increase ratio between 1.3-2.0)
30 | O=C(O)c1ccc2oc(-c3ccc(F)cc3)nc2c1 [Cpd 55, 2-(4-fluoro-phenyl)-benzooxazole-5-carboxylic acid] | * (1 star (*) represents active compounds with a fold increase ratio between 1.1-1.3)
31 | O=C(O)c1ccc2oc(-c3ccc(N4CCC4)cc3)nc2c1 [Cpd 57, 2-(4-azetidin-1-yl-phenyl)-benzooxazole-5-carboxylic acid] | ** (2 stars (**) represent active compounds with a fold increase ratio between 1.3-2.0)
32 | O=C(O)c1ccc2nc(-c3ccco3)oc2c1 [Cpd 65, 2-furan-2-yl-benzooxazole-6-carboxylic acid] | ** (2 stars (**) represent active compounds with a fold increase ratio between 1.3-2.0)
